{"source": "patent US9167822B2", "about": "“Antifungal compositions” (DSM IP ASSETS B.V., priority 2012, dated 2015)", "test_system": "Botrytis cinerea", "experiment": "In vitro antifungal activity, 96-well microtiter plates", "assay_type": "cell-based", "conditions": "25° C., day 3, 1.25 ppm natamycin, 6.25 ppm isopyrazam or both", "protocol": "Subsequently, 100 μl of a Botrytis cinerea suspension prepared in PCB medium was used to inoculated each well with 2.5×10^3 spores/ml. […] After incubation of the microtiter plates at 25° C., the in vitro antifungal activity (%) of the individual active ingredients was assessed by calculating the reduction in mould growth observed in the presence of the active ingredient in comparison to the mould growth observed in the absence of the active ingredient. The expected antifungal activity (E in %) of the active ingredient combination was calculated according to the Colby equation (Colby, 1967): […]", "data": [{"smiles": "C[C@@H]1C/C=C/C=C/C=C/C=C/[C@H](O[C@@H]2O[C@H](C)[C@@H](O)[C@H](N)[C@@H]2O)C[C@@H]2O[C@](O)(C[C@@H](O)C[C@H]3O[C@@H]3/C=C/C(=O)O1)C[C@H](O)[C@H]2C(=O)O", "note": "[Natamycin, natamycin]", "values": [{"measurement": "Observed antifungal activity O (%)", "value": 0, "unit": "%"}]}]}
